Assay results as given in patent US20230142739A1, “PROTEIN-PROTEIN INTERACTION STABILIZERS” (The Regents of the University of California, priority 2020, published 2023).
Values belong to the molecule of their own block, whether it stands above or below them.

What was measured:
ER [1] = biological target: T1, ER (Homo sapiens, UniProt P31947); experiment: Fp (EC50)/fold-stabilization of peptide, ER; format: binding; conditions: 24 hr incubation
ER [2] = biological target: T1, ER; experiment: MS (KD,app), ER; format: binding; conditions: 24 hr incubation
14-3-3σ(C42)/ERα-pp = biological target: T2, 14-3-3σ(C42)/ERα-pp (Homo sapiens, UniProt P31947, C38N/N42C); experiment: Fluorescence anisotropy, fragment titration to 14-3-3σ(C42) and fluorescein-ERα-pp; conditions: 1 μM 14-3-3σ(C42), 100 nM fluorescein-ERα-pp; read-out: EC50 (anisotropy, stabilization of ERα-pp binding)
T2 construct: with a truncated C-terminus after T231; His6 (N, cleaved yes); made in house; host or cells: E. coli NiCo21 (DE3), pPROEX HTb
Protocol: We observed the same trend when we titrated the fragments into a mixture of 1 μM 14-3-3σ(C42) and 100 nM fluorescein-ERα-pp, conditions under which half of the peptide was initially bound. […] The maximum effect was instantaneous at a saturating concentration (100 μM).
Fluorescence Anisotropy. […] Final DMSO concentration in the assay was always 1%. Dilution series of 14-3-3 protein or fragments were made in black, round-bottom 384-microwell plates (Corning) in a final sample volume of 10 μL in triplicates. Fluorescence anisotropy measurements were performed directly and after overnight incubation at room-temperature, using a Tecan Infinite F500 plate reader (filter set λex: 485±20 nm, λem: 535±25 nm). Data reported are at endpoint. EC50 values were obtained from fitting the data with a four-parameter logistic model (4PL) in GraphPad Prism 6.

14-3-3/Pin1_72 complex = biological target: T3, 14-3-3/Pin1_72 complex (Homo sapiens, UniProt P61981); experiment: Cooperativity analysis, 14-3-3 titrations at varied constant fragment concentration; format: binding; conditions: 8 μM compound
T3 construct: the full length 14-3-3γ was dialysis against 25 mM HEPES pH 7.5; made in house; host or cells: E. coli BL21(DE3), pPROEX HTb
Description: Cooperativity in ternary complex formation. In contrast to PPI inhibition, where affinity to one of the protein pockets is the driving force for drug development, design of molecular glues is driven by cooperative ternary complex formation. Both CC50 and SF values are concentration dependent values and might differ based on assay design. […] Cooperative complex formation is often accompanied by structural changes of the interface of a complex which translates to increased stability of the ternary com-plex. In order to assess cooperativity of the ternary complex, fragments 13, 23, 27 and 28 were selected for cooper-activity analysis. The α-factor of the fragments were determined using 14-3-3 titrations in the presence of varied, but constant concentration of fragment in a dose-dependent manner. […] Further, the interval of change in stabilization further describes the systems cooperative behaviour.
However, at higher concentration regimes significant assay interference was observed, probably due to compound aggregation. Fragments 23, 27 and 28 all reached saturation or approached saturation enabling accurate determination of α-factor. […] KD remains constant also at higher concentrations of FC-A, indicating non-specific effects.

14-3-3/ERα complex = biological target: T4, 14-3-3/ERα complex (Homo sapiens, UniProt P61981); experiment: Selectivity screening FA, ERα peptide; format: binding
T4 construct: the full length 14-3-3γ was dialysis against 25 mM HEPES pH 7.5; made in house; host or cells: E. coli BL21(DE3), pPROEX HTb
T4 sequence (P61981 1-247): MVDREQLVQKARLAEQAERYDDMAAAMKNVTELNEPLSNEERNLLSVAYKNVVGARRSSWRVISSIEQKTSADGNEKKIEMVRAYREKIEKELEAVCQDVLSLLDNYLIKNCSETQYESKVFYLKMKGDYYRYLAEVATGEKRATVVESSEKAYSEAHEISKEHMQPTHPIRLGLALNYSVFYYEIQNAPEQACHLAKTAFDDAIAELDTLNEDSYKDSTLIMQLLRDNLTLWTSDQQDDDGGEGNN
Description: Selectivity screening of covalent fragments. Drugging the hub protein 14-3-3 raises the challenge of selectivity. We hypothesized that the high level of cooperative behavior for 14-3-3/Pin1_72/28 complex is a function of the unique functionality and topology of the interface, specifically the +1 and +3 amino acid of Pin1_72 with the covalent fragment. We further rationalized that this cooperativity would likely translate to high selectivity. To test this hypothesis, fragments 13, 27 and 28 were screened at a single fragment concentration (100 μM) against a panel of 13 peptides as diverse representatives of 14-3-3 client proteins, differing in size and hydrophobicity of the +1 amino acid (FIG. 22A).
(§1) Fluorescence Anisotropy (FA) Assays.

14-3-3/NFκBp65 peptide = 14-3-3/NFκBp65 peptide (Homo sapiens, UniProt P31947); experiment: Fluorescence polarization assay, FITC-NFκBp65 peptide binding to 14-3-3 with increasing fragment
Description: As the primary assays to test for binding and activity we used X-ray protein crystallography (crystal soaking) and a fluorescence polarization assay (FP) employing a fluorophore-labelled (FITC) version of the NFκBp65 peptide. After some rounds of analogues testing, we were able to identify the molecules' electrochemical properties that are enabling the lysine attach to the carbonyl feature of the fragment. […] This reflects a principal feature of orthosteric PPI stabilization which is based on the direct, simultaneous physical interaction of the stabilizer with both protein partners.
In addition to the hydrophobic interaction of the primary phenyl ring of TCF521-129 with the side chain of Ile46, the 2,6-dimethylmorpholine substituent sits on top of this side chain and additionally contacts with one of its methyl groups Pro47 and Gly48. The opposite methyl is engaging a hydrophobic patch in the ‘roof’ of the 14-3-3 groove comprised of Leu218, Ile219, and […] (FIG. 9B, upper row). […] The potential PPI stabilizing activity of both fragments were tested in a fluorescence polarization assay measuring the binding of a fluorescently-labelled (FITC) NFκBp65 peptide to 14-3-3 in the presence of an increasing concentration of the fragment.

Pin1_72/14-3-3σΔC = biological target: T5, Pin1_72/14-3-3σΔC (Homo sapiens, UniProt P31947); experiment: X-ray crystal soaking; format: binding; conditions: 10 mM fragment soak
T5 construct: The 14-3-3σ protein was C-terminally truncated (ΔC) after T231 to enhance crystallization; His6 (cleaved yes); made in house; host or cells: E. coli BL21(DE3), pPROEX HTb
Protocol: X-Ray Crystallography. […] B-Raf/14-3-3σΔC and Abl1/14-3-3σΔC crystals were grown in a sitting drop set up. […] All crystals were directly flash-frozen in liquid nitrogen and data acquisition took place at either the P11 beamline of […] campus, Hamburg, Germany) or i-03/i-24 beamline of the diamond light source (Oxford, UK) or in-house. Fragment screening was performed by crystal soaking, whereby a final concentration of 10 mM fragment was added to fully grown crystals (final DMSO ≤1%). The fragment/crystal mixtures incubated for seven days prior to data acquisition. The diffraction data were analyzed with […] pipeline and MolRep was used for phasing. For model refinement Coot, Refmac5 and phenix.refine were utilized in iterative cycles. The elbow software of the phenix suite was used for ligand preparation based on fragment SMILES. Figures were generated with PyMOL© (V2.0.6, Schrodinger LLC).

Pin1_72/14-3-3γ = biological target: T6, Pin1_72/14-3-3γ (Homo sapiens, UniProt P61981+Q13526); experiment: Fluorescence anisotropy protein titration, Pin1_72/14-3-3γ at constant compound; format: binding; conditions: based on internal DMSO control and 100 μM fragment
T6 construct: the full length 14-3-3γ was dialysis against 25 mM HEPES pH 7.5; made in house; host or cells: E. coli BL21(DE3), pPROEX HTb
Description: Inspired by the binding poses of 3 and 9 we combined their structural features to improve stabilization. […] In case of complex stabilization, a left shift of apparent KD values is expected, here described as stabilization factors (SF).
as §1

Pin1_72/14-3-3 complex = biological target: T7, Pin1_72/14-3-3 complex (Homo sapiens, UniProt P61981); experiment: Fluorescence anisotropy compound titration, Pin1_72/14-3-3 (CC50); format: binding
T7 construct: the full length 14-3-3γ was dialysis against 25 mM HEPES pH 7.5; made in house; host or cells: E. coli BL21(DE3), pPROEX HTb
T7 sequence (P61981 1-247): T4 sequence (P61981 1-247)
Protocol: Site-Directed Shift base fragment Screening. […] As measure of activity the inflection point of the curve was determined, representing the half-maximum complex formation (CC50).
as §1

T5 sequence (P31947 1-231 limits assumed, stated change not applied, other chains not shown): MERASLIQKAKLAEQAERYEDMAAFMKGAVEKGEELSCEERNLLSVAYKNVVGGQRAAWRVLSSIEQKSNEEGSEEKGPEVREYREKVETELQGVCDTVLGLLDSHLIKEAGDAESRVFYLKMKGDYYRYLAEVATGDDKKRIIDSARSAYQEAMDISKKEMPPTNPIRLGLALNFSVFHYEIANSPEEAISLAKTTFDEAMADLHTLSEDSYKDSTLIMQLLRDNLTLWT
T1 sequence (P31947 whole entry, other chains not shown): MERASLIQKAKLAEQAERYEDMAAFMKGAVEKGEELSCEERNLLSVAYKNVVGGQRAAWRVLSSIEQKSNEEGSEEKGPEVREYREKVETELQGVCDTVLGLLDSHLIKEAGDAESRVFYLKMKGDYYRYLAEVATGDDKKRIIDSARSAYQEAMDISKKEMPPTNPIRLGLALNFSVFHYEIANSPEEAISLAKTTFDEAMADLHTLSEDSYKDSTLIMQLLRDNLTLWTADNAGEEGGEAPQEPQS
Chain of 14-3-3/NFκBp65 peptide (P31947 whole entry, other chains not shown, the tested form may be a part): as the sequence (P31947 whole entry, other chains not shown) above
T2 sequence (P31947 1-231 C38N/N42C, other chains not shown): as the sequence (P31947 1-231 limits assumed, stated change not applied, other chains not shown) above, with C38N, N42C counted along it

EC50 (ER [1]): 38.9 µM
Kd (ER [2]): 84.3 µM
SMILES: CC(C)(Oc1ccc(Cl)cc1)C(=O)N1CCC(CNC(=O)CCl)CC1

EC50 (ER [1]): 32.7 µM
Kd (ER [2]): 33.7 µM
SMILES: CC(C)(Oc1ccc(Cl)cc1)C(=O)N1CCC(CCNC(=O)CCl)CC1

SMILES: C=CC(C)(C)OC[C@H]1O[C@H](O[C@@H]2C3=C([C@H](C)COC(C)=O)C[C@H](O)[C@]3(C)/C=C3/[C@@H](COC)CC[C@H]3[C@@H](C)[C@H]2O)[C@H](O)[C@@H](OC(C)=O)[C@@H]1O [FC-A, fusicoccane-A]
EC50 (14-3-3σ(C42)/ERα-pp): 0.216 µM

SMILES: C=CC(C)(C)OC[C@H]1O[C@H](O[C@@H]2C3=C([C@H](C)COC(C)=O)C[C@H](O)[C@]3(C)/C=C3/[C@@H](COC)CC[C@H]3[C@@H](C)[C@H]2O)[C@H](O)[C@@H](OC(C)=O)[C@@H]1O [FCA, Fusicoccin A, reference compound]
SF 8 μM (14-3-3/Pin1_72 complex): ~10
stabilization of the 14-3-3/ERα complex (14-3-3/ERα complex): 110 fold

PPI stabilizing activity (14-3-3/NFκBp65 peptide; highest concentrations tested): only a very weak
SMILES: CC(=O)N1CCN(S(=O)(=O)c2ccc(C=O)cc2)CC1 [TCF521-123, 4-[(4-acetylpiperazin-1-yl)sulfonyl]benzaldehyde]

EC50 (14-3-3/NFκBp65 peptide; read-out: EC50 (stabilizes interaction of peptide with 14-3-3)): 370 µM
SMILES: CC1CN(S(=O)(=O)c2ccc(C=O)cc2)CC(C)O1 (stereo not drawn) [TCF521-129, 4-[(2,6-dimethylmorpholin-4-yl)sulfonyl]benzaldehyde]

PDB: electron density due to compound binding (Pin1_72/14-3-3σΔC): n. bind.
SMILES: O=Cc1ccc(-n2ccnc2-c2ccccc2)c(OC(F)(F)F)c1 [compound 20, 4-(2-phenyl-1H-imidazol-1-yl)-3-(trifluoromethoxy)benzaldehyde]

PDB: electron density due to compound binding (Pin1_72/14-3-3σΔC): n. bind.
SMILES: O=Cc1ccc(-n2ccnc2-c2ccccc2)c(Oc2ccccc2)c1 [compound 21, 3-phenoxy-4-(2-phenyl-1H-imidazol-1-yl)benzaldehyde]

SF (fold stabilization) (Pin1_72/14-3-3γ): 3.32
PDB: electron density due to compound binding (Pin1_72/14-3-3σΔC): n. bind
SMILES: O=Cc1ccc(-n2ccnc2-c2ccc(Br)cc2)cc1Br [compound 24, 2-bromo-4-(2-(4-bromophenyl)-1H-imidazol-1-yl)benzaldehyde]

SF (fold stabilization) (Pin1_72/14-3-3γ): 2.27
SMILES: O=Cc1ccc(-n2ccnc2-c2cccnc2)cc1Br [compound 26, 2-bromo-4-(2-(pyridin-3-yl)-1H-imidazol-1-yl)benzaldehyde]
activity in FA assay (Pin1_72/14-3-3 complex): limited effect
